In brackets after ≈: the same amount, converted by molar mass. Entries after “also recorded” stand apart in the source; their conditions may differ. Like-named read-outs stand apart in the source and are kept apart here.
Key:
[1] = system: herpes simplex virus Type I (HSV I); experiment: Inhibition of virus replication (plaque assay, BHK-21 cells); type: cell-based, Type 1, Troisbel strain; details: for log reduction at 1 µg/mL: 1 mg/l; for log reduction at 5 µg/mL: 5 mg/l
Experimental: 1. Mono-layers of baby hamster kidney cells (BHK-21) are prepared in Petri dishes containing ETC medium (Eagle's minimal essential medium +10% tryptose phosphate broth +10% new born calf serum).
2. After incubation the medium is poured off to leave the layer of cells attached to the Petri dish. A solution containing virus, specifically herpes simplex virus Type I (HSV I) for example, in ETC medium is then added to the dish and incubated with intermittent rocking for one hour to allow the virus to adsorb to the cells of the mono-layer. Unadsorbed virus is then removed by pouring off the virus-containing medium and washing twice with new sterile medium. Then new medium is added to each Petri dish. At this stage various concentrations of drug can be added to the medium.
3. […] First the dishes are frozen to -70° C. and thawed to disrupt the mono-layer and break up the cells. Then the medium and the disrupted cells are transferred to bijou bottles and sonicated to break down the cells completely and to release all the virus particles the cells contain. The sonicated medium is then diluted with fresh sterile ETC medium to give concentrations of the original Petri dish fluid of 10^-2, 10^-4, 10^-6 and 10^-8.
4. The number of virus particles (plaque forming units) in the dilutions is then assayed. A standard number of BHK cells (usually 8×10^6) is added to 2 ml of the diluted solutions and incubated for one hour, with cautious, gentle shaking, and 8 ml of Eagle's minimal essential medium +2% new born calf serum + carboxymethyl cellulose is then added to the cell suspension. This medium has gelling properties which prevent spreading of the virus through the medium and which encourage the formation of discrete plaques in cell mono-layers. The medium from each dilution is then dispensed into Petri dishes and incubated for two to three days.
5. The number of plaques formed is then counted and the amount of active virus expressed as the number of plaque forming units (pfus) as follows. The medium is poured off and the cell mono-layer is fixed using 10% formol saline and stained with dilute carbol fuchsin. The number of plaques in each Petri dish is counted. Based on the dilutions, the number of plaque forming virus particles in the original solutions is calculated.
In the Table, the figures are the concentration of viral particles in pfu/ml present in the cells + medium at the end of the replication stage (3).

Absolute solubilities = type: physicochemical
HTLV-IIIB = experiment: Anti-HIV activity assay, HTLV-IIIB (MT-4 cells, MTT method); type: cell-based; details: for Selectivity index (SI): CD50/ED50, HTLV-IIIB; for EC50: Human immunodeficiency virus 1, MT4, 120 h, MT-4 cells, five days, HTLV-IIIB, read-out: ED50 (50% effective dose)
Experimental: (§1) Results in relation to HIV virus were obtained by the method of Pauwels et al, Journal of Virological Methods 20, 309 to 321 (1988), as follows:
(§2) MT-4 cells (2.5×10^4 /well) were infected with HIV (100 CCID50) and incubated in the presence of varying concentrations of the test compounds (added immediately after virus infection). After five days incubation at 37° C. in a CO2 incubator, the number of viable cells was assessed by the MTT (tetrazolium) method. Anti-viral activity and cytotoxicity of the compounds are expressed as ED50 (50% effective dose) and CD50 (50% cytotoxic dose), respectively. SI (selectivity index=CD50 /ED50.
(§3) These are given in Table 8 and Table 9 below in relation to HTLV-IIIB and LAV-2ROD viruses.

[2] = system: herpes simplex virus Type I; experiment: Inactivation of virus (30 minutes incubation, plaque assay); type: cell-based, Type 1, Troisbel strain; details: for log reduction at 1 µg/mL: 1 mg/l; for log reduction at 5 µg/mL: 5 mg/l
Experimental: 1. A virus solution containing 2×10^5 pfu/ml is prepared in phosphate buffered saline (Dulbecco's A).
2. The compound to be tested is made up in Dulbecco's medium A in a suitable range of dilutions.
3. Equal volumes of the virus and drug solution are mixed together. Control solutions without drug are also used.
4. The virus and drug are incubated for an appropriate period of time, in this example, thirty minutes.
5. The numbers of active viral particles in the solution are assayed as in items 4 and 5 under A.
The results are shown below (Table 6). In the Table, the figures are concentrations of viral particles present after incubation of the virus for 30 minutes with solutions of the drugs.

LAV-2ROD = experiment: Anti-HIV activity assay, LAV-2ROD (MT-4 cells, MTT method); type: cell-based; details: for Selectivity index (SI): CD50/ED50, LAV-2ROD; for EC50: MT4, 120 h, MT-4 cells, five days, LAV-2ROD, read-out: ED50 (50% effective dose)
Experimental: as §1, §2, §3

[3] = system: herpes simplex virus Type I (HSV I); details: herpes zoster and herpes simplex; cited from earlier work
in vitro = type: cell-based; details: human, mt-4 cells, CD50 (50% cytotoxic dose)
Experimental: as §1, §2

MT-4 cells = experiment: in vitro; type: cell-based; details: human, 120 h
Experimental: as §1, §2

[4] = Human alphaherpesvirus 1, BHK-21, 24 h, read-out: Inhibition of viral replication (log10 reduction in virus titre)
[5] = chloroform, organic solvent or mixture, CHCl3 98 to 99% pure, with 1% balance ethanol to stabilise, read-out: Absolute solubility in CHCl3
[6] = in water, read-out: Absolute solubility in water
[7] = Human alphaherpesvirus 1, 0.5 h, read-out: Inactivation of virus (log10 reduction in virus titre)

Compound	% in chloroform phase (partition co-efficients, water/chloroform)	Selectivity index (SI) (HTLV-IIIB)	EC50 (HTLV-IIIB)	Virucidal activity / inactivation of herpes virus (in words) [2]	Selectivity index (SI) (LAV-2ROD)	EC50 (LAV-2ROD)	Inhibition of herpes virus replication (in words) [1]	CC50 at 120 h (in vitro)	CD50 (50% cytotoxic dose) (MT-4 cells)	log reduction at 1 µg/mL [2, 7]	log reduction at 5 µg/mL [2, 7]	other results
CCCCC/C=C\C/C=C\CCCCCCCC(=O)OCCOCn1cnc2c(=O)[nH]c(N)nc21 [AK 6]	> 99%	< 1	> 40 µg/mL	lacking in this activity	< 1	> 100 µg/mL						log reduction at 1 µg/mL [1, 4]: 2.4; log reduction at 5 µg/mL [1, 4]: 4.2; solubility (Absolute solubilities; [5]): > 50000 µg/mL; solubility (Absolute solubilities; [6]): 14 µg/mL (≈ 28.7 µM); Inactivation of virus (in words) ([2]; up to 50 mg/l): no inactivation
Cc1cn2c(nc1=O)O[C@@H]1C[C@H]2O[C@@H]1CO [AK 8, Anhydrothymidine, reference compound]	4%	59	13.1 µg/mL (≈ 58.4 µM)	no effect	15	21.8 µg/mL (≈ 97.2 µM)	no effect					Activity against herpes viruses (in words) [3]: inactive; Inhibition of viral replication (in words) ([1]; concentration not given, Table 7): no inhibition; Inactivation of virus (in words) ([2]; 10 mg/l): no inactivation; log reduction at 25 µg/mL ([2]; Human alphaherpesvirus 1, 0.5 h, 25 mg/l, read-out: Inactivation of virus (log10 reduction in virus titre)): 0.7
CCCCC/C=C\C/C=C\C/C=C\CCCCC(=O)OC[C@H]1O[C@@H]2C[C@H]1Oc1nc(=O)c(C)cn12 [AK 3, GLA - Anhydrothymidine]	> 98%	< 1	> 40 µg/mL	virucidal	< 1	> 40 µg/mL		17.7 µg/mL (≈ 36.6 µM)	16.8593 µg/mL	2.7		log reduction at 25 µg/mL ([1]; Human alphaherpesvirus 1, BHK-21, 24 h, 25 mg/l, read-out: Inhibition of viral replication (log10 reduction in virus titre)): 0.5; log reduction at 50 µg/mL ([1]; Human alphaherpesvirus 1, BHK-21, 24 h, 50 mg/l, read-out: Inhibition of viral replication (log10 reduction in virus titre)): 0.9; log reduction at 100 µg/mL ([1]; Human alphaherpesvirus 1, BHK-21, 24 h, 100 mg/l, read-out: Inhibition of viral replication (log10 reduction in virus titre)): 1.2; log reduction at 0.5 µg/mL ([2]; Human alphaherpesvirus 1, 0.5 h, 0.5 mg/l, read-out: Inactivation of virus (log10 reduction in virus titre)): 1.6
CCCCC/C=C\C/C=C\CCCCCCCC(=O)Nc1nc2c(ncn2COCCOC(=O)CCCCCCC/C=C\C/C=C\CCCCC)c(=O)[nH]1 [AK 11]	> 99%	< 1	> 40 µg/mL	virucidal; also recorded: very effective	< 1	> 40 µg/mL	very effective	13.1 µg/mL (≈ 17.5 µM)	10.1674 µg/mL	0.15	1.55	log reduction at 1 µg/mL [1, 4]: 1.69; log reduction at 5 µg/mL [1, 4]: 2.46
CCCCC/C=C\C/C=C\C/C=C\CCCCC(=O)OCCOCn1cnc2c(=O)[nH]c(N)nc21 [AK 5]	> 99%	< 1	> 40 µg/mL	lacking in this activity	< 1	> 40 µg/mL		17.2 µg/mL (≈ 35.4 µM)	18.7751 µg/mL			log reduction at 0.1 µg/mL ([1]; Human alphaherpesvirus 1, BHK-21, 24 h, 0.1 mg/l, read-out: Inhibition of viral replication (log10 reduction in virus titre)): 1; log reduction at 0.5 µg/mL ([1]; Human alphaherpesvirus 1, BHK-21, 24 h, 0.5 mg/l, read-out: Inhibition of viral replication (log10 reduction in virus titre)): 2.2; solubility (Absolute solubilities; [5]): > 50000 µg/mL; solubility (Absolute solubilities; [6]): 28 µg/mL (≈ 57.7 µM); Inactivation of virus (in words) ([2]; up to 50 mg/l): no inactivation
CCCCC/C=C\C/C=C\CCCCCCCC(=O)OC[C@H]1O[C@@H]2C[C@H]1Oc1nc(=O)c(C)cn12 [AK 4]	> 99%	< 1	> 40 µg/mL	virucidal	< 1	> 40 µg/mL		18.2 µg/mL (≈ 37.3 µM)	17.4332 µg/mL	2.75	2.9	Inhibition of viral replication (in words) ([1]; up to 100 mg/l): no inhibition
CCCCC/C=C\C/C=C\CCCCCCCC(=O)OC[C@H]1O[C@@H](n2cc(C)c(=O)[nH]c2=O)C[C@@H]1N=[N+]=[N-] [AK 2]	> 99%	26008	0.000365 µg/mL (≈ 0.000689 µM)	virucidal	7999	0.000744 µg/mL (≈ 0.0014 µM)	to inhibit its replication	9.49 µg/mL (≈ 17.9 µM)	5.9512 µg/mL	2.2	2.8	Inhibition of viral replication (in words) ([1]; up to 100 mg/l): no inhibition; Virucidal activity / inactivation of herpes virus (in words) ([2]; listed as AZT-LA): able both to inactivate the herpes virus
